The nature of data set [1]: Solubility studies of Bu and BuP in buffer media. The format is physicochemical. As to conditions: thermodynamic from solid. How it is done: Solubility studies of the pure Bu and prepared BuP were determined (n=6) by making saturated solutions of HCl buffer, phthalate buffer, phosphate buffer of pH 1.2, 4.0, 6.8 (with and without 10% w/v rat fecal content), and 7.4 respectively. The solutions, kept separately in a conical flask, were subjected to ultrasonic waves in an ultrasonic bath (Sonorex, Bandelin Electronic, Germany) for 30 minutes. Fiber optic probes were inserted at 0 and 30 minutes, and readings taken at 232 nm for Bu and 340 nm for BuP using the fiber optics system

The nature of data set [2]: Partition coefficient, Hansch method (n-octanol/buffer). The class given is physicochemical. How it is done: The Hansch method was used to determine the partition coefficient between the n-octanol and phosphate buffer (both 10 mL) system. Different pH systems of 1.2, 4.0, 6.8, and 7.4, and n-octanol and double distilled water (both 10 mL, pH 5.8) were prepared. The buffers, n-octanol, and double distilled water were added to a separating funnel. The phases were shaken for 60 minutes. to attain saturation. Ten milligrams of Bu and BuP were added to respective separators and were given 30 minutes of shaking for the drug to achieve sufficient distribution in both the phases. The separators were kept still for 5 minutes, and then the phases were separated. The phases were suitably diluted and analyzed (n=6) using the fiber optics with the UV detector set at 232 nm and 340 nm for Bu and BuP, respectively.

A further data set relates to colitis in rats. Particulars: literature; cited from earlier work.

Converted amounts (≈) assume the structure as drawn.

This is an account of results in patent publication US11013748B2, “Budesonide prodrug” (University of Nizwa, priority 2019, dated 2021).

As usually defined, the solubility is the concentration that dissolves in the medium under given conditions. The term logP denotes a log measure of how a compound divides between an organic and an aqueous phase. As for `CCCC1O[C@@H]2C[C@H]3[C@@H]4CCC5=CC(=O)C=C[C@]5(C)[C@H]4[C@@H](O)C[C@]3(C)[C@]2(C(=O)CO)O1` (stereo partly drawn) [Bu, budesonide], the solubility at 0 min in data set [1] (aqueous buffer, Phosphate buffer, pH 6.8) was 187 ± 1.98 µg/mL (≈ 435 µM); in data set [1] (aqueous buffer, Phosphate buffer, pH 7.4), 231 ± 2.12 µg/mL (≈ 537 µM); in data set [1] (aqueous buffer, Phthalate buffer, pH 4.0), 68.2 ± 0.98 µg/mL (≈ 158 µM); in data set [1] (phosphate buffer with 10% w/v rat fecal content, plasma or biological fluid, Phosphate buffer, pH 6.8 + rat fecal content), 187.1 ± 0.89 µg/mL; in data set [1] (simulated gastric fluid, HCl buffer, pH 1.2) it was 25.1 ± 1.43 µg/mL (≈ 58.3 µM); in data set [1] (Double distilled water, pH 5.8), 121 ± 1.26 µg/mL (≈ 281 µM). Besides, the solubility at 30 min in data set [1] (aqueous buffer, Phosphate buffer, pH 6.8, 30 min) was 356.9 ± 0.99 µg/mL (≈ 829 µM); in data set [1] (aqueous buffer, Phosphate buffer, pH 7.4, 30 min), 476.1 ± 1.99 µg/mL (≈ 1110 µM); in data set [1] (aqueous buffer, Phthalate buffer, pH 4.0, 30 min), 148 ± 1.32 µg/mL (≈ 344 µM); in data set [1] (phosphate buffer with 10% w/v rat fecal content, plasma or biological fluid, Phosphate buffer, pH 6.8 + rat fecal content, 30 min), 356.9 ± 1.76 µg/mL; in data set [1] (simulated gastric fluid, HCl buffer, pH 1.2, 30 min ultrasonic bath), 88.12 ± 0.67 µg/mL (≈ 205 µM); in data set [1] (Double distilled water, pH 5.8, 30 min) it was 209 ± 2.13 µg/mL (≈ 486 µM). Moreover, the logP in data set [2] (n-octanol / HCl buffer, pH 1.2) is 3.12 ± 0.12; in data set [2] (n-octanol / double distilled water, pH 5.8), 2.87 ± 1.05; in data set [2] (n-octanol / phosphate buffer, pH 6.8), 2.51 ± 0.36; in data set [2] (n-octanol / phosphate buffer, pH 7.4), 2.13 ± 1.09; in data set [2] (n-octanol / phthalate buffer, pH 4.0) it was 3.01 ± 0.54.

With `CCCC1OC2CC3C4CCC5=CC(=O)C=CC5(C)C4C(O)CC3(C)C2(C(=O)COC2OC(C(=O)O)C(O)C(O)C2O)O1` [budesonide-beta-D-glucuronide], in the data set with colitis in rats, the “effect on colitis in rats” value is “accelerate the treatment of colitis in rats”.
